Reference: patent US20070155832A1, “Use of sulfonamide compounds for the treatment of diabetes and/or obesity” (priority 2003, published 2007)

What was measured:
Type in all cases: biochemical
[1] = biological target: T1, DGAT1 (Rattus norvegicus, UniProt Q9ERM3); assay: DGAT1 inhibition at 100 mM Mg in rat liver microsomes
T1 construct: from tissue; host or cells: rat liver microsomes
T1 sequence (Q9ERM3 1-498): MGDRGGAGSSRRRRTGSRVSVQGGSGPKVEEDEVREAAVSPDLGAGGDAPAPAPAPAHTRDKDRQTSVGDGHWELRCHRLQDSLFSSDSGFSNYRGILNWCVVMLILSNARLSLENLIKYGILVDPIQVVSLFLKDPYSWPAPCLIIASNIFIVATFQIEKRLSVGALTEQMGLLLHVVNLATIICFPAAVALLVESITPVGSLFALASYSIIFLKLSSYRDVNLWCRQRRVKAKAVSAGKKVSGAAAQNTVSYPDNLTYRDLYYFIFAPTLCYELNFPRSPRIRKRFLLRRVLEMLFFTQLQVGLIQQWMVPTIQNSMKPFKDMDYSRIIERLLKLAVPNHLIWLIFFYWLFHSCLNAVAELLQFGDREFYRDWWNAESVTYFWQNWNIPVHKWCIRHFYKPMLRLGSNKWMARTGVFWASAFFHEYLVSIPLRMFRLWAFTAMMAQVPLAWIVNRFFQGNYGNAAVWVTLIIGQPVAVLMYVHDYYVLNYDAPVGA
Procedure: (§1) The ability of compounds to inhibit DGAT can be measured as described in Coleman (1992) Methods in Enzymology 209, 98-102.
(§2) The inhibitory activity of sulfamic acid [[2,4,6-tris(1-methylethyl)phenyl]acetyl-2,6-bis(1-methylethyl)phenyl ester against DGAT1, DGAT2 and ACAT was measured in rat and human liver microsomes. DGAT1 and DGAT2 can be distinguished since DGAT2 is not active at high magnesium concentrations (concentrations of 50 mM or higher) whilst DGAT1 retains its activity at high magnesium concentrations.
(§3) The results obtained, expressed as the concentration of inhibitor at which 50% of the enzyme activity is inhibited, i.e. the IC50, are as follows: […]

[2] = test system: ACAT; assay: ACAT inhibition in rat liver microsomes
Source text: (§4) The ability of compounds to inhibit ACAT can be measured using an in-vitro test described in Field & Salone (1982) Biochemica et Biophysica, 712, 557-570. The test assesses the ability of a test compound to inhibit the acylation of cholesterol by oleic acid by measuring the amount of radiolabeled cholesterol oleate formed from radiolabeled oleic acid in a tissue preparation containing rat liver microsomes.
as §2

[3] = test system: DGAT1 and DGAT2; assay: DGAT inhibition (DGAT1 and DGAT2) in human liver microsomes
Procedure: as §1, §2, §3

[4] = test system: DGAT1 and DGAT2; assay: DGAT inhibition (DGAT1 and DGAT2) in rat liver microsomes
Procedure: as §1, §2, §3

[5] = test system: ACAT; assay: ACAT inhibition in human liver microsomes
Source text: as §4, §2

[6] = biological target: T2, DGAT1 (Homo sapiens, UniProt O75907); assay: DGAT1 inhibition at 100 mM Mg in human liver microsomes
T2 construct: from tissue; host or cells: human liver microsomes
T2 sequence (O75907 1-488): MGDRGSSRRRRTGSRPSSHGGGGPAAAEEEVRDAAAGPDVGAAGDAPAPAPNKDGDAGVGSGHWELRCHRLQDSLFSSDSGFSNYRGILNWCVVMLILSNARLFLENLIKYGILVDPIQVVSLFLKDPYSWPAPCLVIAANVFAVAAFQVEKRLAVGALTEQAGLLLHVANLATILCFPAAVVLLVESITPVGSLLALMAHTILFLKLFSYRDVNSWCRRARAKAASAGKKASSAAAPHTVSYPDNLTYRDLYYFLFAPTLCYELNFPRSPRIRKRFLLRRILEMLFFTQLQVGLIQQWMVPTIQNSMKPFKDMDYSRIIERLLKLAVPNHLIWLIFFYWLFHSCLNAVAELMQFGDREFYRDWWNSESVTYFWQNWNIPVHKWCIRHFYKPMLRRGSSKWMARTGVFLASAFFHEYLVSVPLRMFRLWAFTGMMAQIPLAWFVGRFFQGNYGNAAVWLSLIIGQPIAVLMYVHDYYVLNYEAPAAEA
Procedure: as §1, §2, §3

Structure (SMILES): CC(C)c1cc(C(C)C)c(CC(=O)NS(=O)(=O)Oc2c(C(C)C)cccc2C(C)C)c(C(C)C)c1 [sulfamic acid [[2,4,6-tris(1-methylethyl)phenyl]acetyl-2,6-bis(1-methylethyl)phenyl ester]
- IC50 [1]: 2.28 µM
- IC50 [2]: 1.03 µM
- IC50 [3]: 7.95 µM
- IC50 [4]: 3.41 µM
- IC50 [5]: 5.67 µM
- IC50 [6]: 3.03 µM
